Experimental data published in ChEMBL document CHEMBL3352132, “Synthesis, screening and docking of small heterocycles as glycogen phosphorylase inhibitors” (Eur J Med Chem, 2014).
Active and inactive are the calls of the source. The calls are words filed in the database; no cut-off is given here.

How the values were obtained:
[1] = molecular target: T1, Glycogen phosphorylase, muscle form (Oryctolagus cuniculus) (UniProt P00489); assay: (§1) Inhibition of rabbit muscle glycogen phosphorylase a assessed as inhibition of release of phosphate from glucose-1-phosphate after 30 mins by spectrophotometry
T1 sequence (whole entry): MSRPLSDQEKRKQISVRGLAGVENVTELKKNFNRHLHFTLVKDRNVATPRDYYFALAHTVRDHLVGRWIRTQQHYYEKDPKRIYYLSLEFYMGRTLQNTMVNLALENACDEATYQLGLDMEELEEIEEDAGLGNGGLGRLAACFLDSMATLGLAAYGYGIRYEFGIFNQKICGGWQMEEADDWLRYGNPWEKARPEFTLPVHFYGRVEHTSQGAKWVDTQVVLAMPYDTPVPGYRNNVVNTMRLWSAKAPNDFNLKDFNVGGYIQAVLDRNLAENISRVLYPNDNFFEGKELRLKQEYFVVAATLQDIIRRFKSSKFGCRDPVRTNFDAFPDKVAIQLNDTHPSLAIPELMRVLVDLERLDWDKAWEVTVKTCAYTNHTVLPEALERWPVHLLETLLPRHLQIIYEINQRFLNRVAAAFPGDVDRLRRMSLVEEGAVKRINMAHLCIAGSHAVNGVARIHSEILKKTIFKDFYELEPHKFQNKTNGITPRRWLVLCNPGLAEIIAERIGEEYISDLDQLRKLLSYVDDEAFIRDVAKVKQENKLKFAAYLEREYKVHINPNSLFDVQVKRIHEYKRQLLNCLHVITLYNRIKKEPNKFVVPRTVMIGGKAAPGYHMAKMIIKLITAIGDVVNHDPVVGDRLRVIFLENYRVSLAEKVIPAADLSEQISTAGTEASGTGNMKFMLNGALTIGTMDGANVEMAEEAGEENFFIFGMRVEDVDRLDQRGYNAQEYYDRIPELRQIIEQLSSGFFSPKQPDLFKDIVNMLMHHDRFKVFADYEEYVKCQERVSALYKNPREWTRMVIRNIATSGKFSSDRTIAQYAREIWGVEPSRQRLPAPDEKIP

[2] = molecular target: T2, Glycogen phosphorylase, muscle form (Oryctolagus cuniculus, UniProt P00489); assay: as §1
T2 sequence (P00489 whole entry): T1 sequence (whole entry)

[3] = molecular target: T1, Glycogen phosphorylase, muscle form (Oryctolagus cuniculus); assay: Inhibition of rabbit muscle glycogen phosphorylase a assessed as inhibition of release of phosphate from glucose-1-phosphate at 222 mM after 30 mins by spectrophotometry
[4] = molecular target: T1, Glycogen phosphorylase, muscle form (Oryctolagus cuniculus); assay: Inhibition of rabbit muscle glycogen phosphorylase a assessed as inhibition of release of phosphate from glucose-1-phosphate at 56 mM after 30 mins by spectrophotometry
[5] = molecular target: T1, Glycogen phosphorylase, muscle form (Oryctolagus cuniculus); assay: Inhibition of rabbit muscle glycogen phosphorylase a assessed as inhibition of release of phosphate from glucose-1-phosphate at 22 mM after 30 mins by spectrophotometry
[6] = molecular target: T1, Glycogen phosphorylase, muscle form (Oryctolagus cuniculus); assay: Inhibition of rabbit muscle glycogen phosphorylase a assessed as inhibition of release of phosphate from glucose-1-phosphate at 111 mM after 30 mins by spectrophotometry

Question: With `NCCCCC(N)C(=O)N1CCOCC1` (stereo unspecified) as the molecule, how does the Activity [1] read?
Answer: The Activity was “inactive”.

Question: `c1ccc(C2=NCCCCO2)cc1` was tested. Which IC50 [2] did it give?
Answer: The IC50 was 1.4 mM.

Question: Which IC50 [2] does the source give for `c1ccc(C2=NCCO2)cc1` here?
Answer: The IC50 was 23.9 mM.

Question: For `CC1(C)CN=C(c2ccccc2)NC1`, which IC50 [2] is on record?
Answer: The IC50 was 1.2 mM.

Question: How did the inhibition [3] turn out when `O=C(NCCCCC(NC(=O)OCc1ccccc1)C(=O)N1CCOCC1)OCc1ccccc1` (stereo unspecified) was run?
Answer: Its inhibition is 5%.

Question: `O=C(NC(Cc1ccccc1)C(=O)N1CCOCC1)OCc1ccccc1` (stereo unspecified) was tested. Which Activity [1] did it give?
Answer: Its Activity is “inactive”.

Question: For `NC(CCC(=O)O)C(=O)N1CCOCC1` (stereo unspecified), which inhibition [3] is on record?
Answer: Its inhibition is 25%.

Question: With `O=[N+]([O-])c1ccc(C2=NCCO2)cc1` as the molecule, how does the inhibition [4] read?
Answer: Its inhibition is 94%.

Question: Which IC50 [2] does the source give for `CC(C)CC(N)C(=O)N1CCOCC1` (stereo unspecified) here?
Answer: The IC50 was 6.5 mM.

Question: `c1ccc(C2=NC3CCCCC3N2)cc1` (stereo unspecified) was tested. Which IC50 [2] did it give?
Answer: The IC50 was 7.8 mM.

Question: How did the inhibition [3] turn out when `NC(Cc1ccccc1)C(=O)N1CCOCC1` (stereo unspecified) was run?
Answer: The inhibition was 20%.

Question: With `c1ccc(C2=NCCS2)cc1` as the molecule, how does the inhibition [5] read?
Answer: The inhibition was 39%.

Question: Which inhibition [6] does the source give for `CC(C)(C)OC(=O)NC(CCC(=O)O)C(=O)N1CCOCC1` (stereo unspecified) here?
Answer: The inhibition was 12%.

Question: How did the IC50 [2] turn out when `COC(=O)[C@@H]1CSC(c2ccccc2)=N1` was run?
Answer: Its IC50 is 0.025 mM.

Question: For `c1ccc(C2=NCCCCN2)cc1`, which IC50 [2] is on record?
Answer: The IC50 was 3 mM.

Question: `CC(C)CC(NC(=O)OCc1ccccc1)C(=O)N1CCOCC1` (stereo unspecified) was tested. Which Activity [1] did it give?
Answer: Its Activity is “inactive”.

Question: For `c1ccc(C2=NCCCN2)cc1`, which inhibition [3] is on record?
Answer: The inhibition was 99%.

Question: With `CC(C)N1CCCN=C1c1ccccc1` as the molecule, how does the IC50 [2] read?
Answer: Its IC50 is 7.2 mM.

Question: How did the IC50 [2] turn out when `CC(C)(C)OC(=O)N1CCCN=C1c1ccccc1` was run?
Answer: The IC50 was 1.1 mM.

Question: How did the inhibition [6] turn out when `c1ccc(C2=NCCCO2)cc1` was run?
Answer: Its inhibition is 39%.

Question: How did the inhibition [6] turn out when `CC1CN=C(c2ccccc2)O1` (stereo unspecified) was run?
Answer: The inhibition was 78%.
